Measurements from patent publication US6677433B2 (The Regents of the University of California, priority 2001, dated 2004).
Like-named read-outs stand apart in the source and are kept apart here.

B1: Glutaredoxin: E. coli glutaredoxin with glutathione reductase, glutathione and NADPH (protein, UniProt P68688 1-85, looked up)
Glutaredoxin 1: MQTVIFGRSGCPYCVRAKDLAEKLSNERDDFQYQYVDIRAEGITKEDLQQKAGKPVETVPQIFVDQQHIGGYTDFAAWVKENLDA
modifications: with glutathione reductase, glutathione, NADPH
B2: α-lactalbumin: purified milk allergen (protein, UniProt P00711 20-142, looked up)
Alpha-lactalbumin: EQLTKCEVFRELKDLKGYGGVSLPEWVCTTFHTSGYDTQAIVQNNDSTEYGLFQINNKIWCKDDQNPHSSNICNISCDKFLDDDLTDDIMCVKKILDKVGINYWLAHKALCSEKLDQWLCEKL

How the values were obtained:
thioredoxin = thioredoxin (Escherichia coli, UniProt P0AA25)
egg white proteins = test: Reduction of egg white proteins (mBBr/SDS-PAGE); type: biochemical, chicken; conditions: 1 hr at room temperature
Procedure: Dried chicken egg white was purchased from Sigma Chemical Co. About 80% of the total proteins in egg white are allergens. A solution of 20 mg/ml egg white was resuspended in PBS. Since not all the material was dissolved, it was centrifuged at 14,000 RPM for 2 min. The soluble egg white proteins were used for the reduction study using mBBr fluorescent labelling and SDS-polyacrylamide gel electrophoresis analysis. The treatments used were the control (no reductant), NTS, DTT plus thioredoxin, reduced glutathione (GSH) and reduced glutathione/glutathione reductase/NADPH. Reactions were carried out in PBS with 23 microliters of the soluble proteins from the 20 mg/ml egg white suspension in a final volume of 100 microliters. In the NTS, 7.5 mM NADPH, 2.4 micrograms thioredoxin and 2.1 micrograms NTR were used. When thioredoxin was reduced by DTT, NADPH and NTR were omitted and DTT was added to 1.5 mM. The GSH concentration used was 3 mM. For reduction by the GSH/GR/NADPH system, 3 mM GSH, 4 micrograms GR and 7.5 mM NADPH were used. The mixture was incubated for 1 hr at room temperature. After incubation, 7 microliters of 80 mM mBBr was added and the reaction continued for 15 min at room temperature. […] Samples were then analyzed by SDS-polyacrylamide gel electrophoresis.

Gliadins = test: Reductant specificity of gliadins (mBBr, native gel, densitometer); type: biochemical, durum wheat; set-up: Gliadin, % Relative Reduction, α / Gliadin, % Relative Reduction, β / Gliadin, % Relative Reduction, γ: concentration or dose not given beside the values; conditions: Thioredoxin = 100
Procedure: (§1) For isolation of insoluble storage proteins, semolina (0.2 g) was extracted sequentially with 1 ml of the following solutions for the indicated times at 25° C.; (1) 50 mM Tris-HCl, pH 7.5 (20 min); (2) 70% ethanol (2 hr); and (3) 0.1 M acetic acid (2 hr). During extraction, samples were placed on an electrical rotator and, in addition, occasionally agitated with a vortex mixer. After extraction with each solvent, samples were centrifuged (12,000 rpm for 5 min) in an Eppendorf microfuge and, supernatant fractions were saved for analysis. In between each extraction, pellets were washed with 1 ml of water, collected by centrifugation as before and the supernatant wash fractions were discarded. By convention, the fractions are designated: (1) albumin/globulin; (2) gliadin; and (3) glutenin.
(§2) Reactions were carried out in 100 mM Tris-HCl buffer, pH 7.9. As indicated, 0.7 μg NTR and 1 μg thioredoxin (both from E. coli unless specified otherwise) were added to 70 μl of this buffer containing 1 mM NADPH and 10 μg of target protein.
To resolve the different types of gliadins, native polyacrylamide gel electrophoresis was performed in 6% gels (a procedure designed to separate gliadins into the four types) as described by Bushuk and Zillman (Bushuk, W. et al. (1978), Can. J. Plant Sci. 58:505-515) and modified for vertical slab gels by Sapirstein and Bushuk (Sapirstein, H. D. et al. (1985), Cereal Chem. 62:372-377). A gel solution in 100 ml final volume contained 6.0 g acrylamide, 0.3 g bisacrylamide, 0.024 g ascorbic acid, 0.2 mg ferrous sulfate heptahydrate and 0.25 g aluminum lactate. The pH was adjusted to 3.1 with lactic acid. The gel solution was degassed for 2 hr. on ice and then 0.5 ml of 3% hydrogen peroxide was added as a polymerization catalyst. The running buffer, also adjusted to pH 3.1 with lactic acid, contained 0.5 g aluminum lactate per liter. Duration of electrophoresis was approximately 4 hr., with a constant current of 50 mA. Electrophoresis was terminated when the solvent front, marked with methyl green tracking dye, migrated to about 1 cm from the end of the gel.
(§3) The Polaroid negatives of fluorescent gels and prints of wet protein stained gels were scanned with a laser densitometer (Pharmacia-LKB UltroScan XL). Fluorescence was quantified by evaluating peak areas after integration with GelScan XL software.
The gliadin fraction is made up of four different protein types, designated α, β, γ and ω, which can be separated by native polyacrylamide gel electrophoresis under acidic conditions (Bushuk, W. et al. (1978), Can. J. Plant Sci. 58:505-515; Kasarda, D. D. et al. (1976), Adv. Cer. Sci. Tech. 1:158-236; Sapirstein, H. D. et al. (1985), Cereal Chem. 62:372-377; and Tatham, A. S. et al. (1990), Adv. Cer. Sci. Tech. 10:1-78). Except for the ω) gliadins, each species contains cystine (S—S) groups and thus has the potential for reduction by thioredoxin. In this study, following incubation with the indicated additions, proteins were derivatized with mBBr, and fluorescence was visualized after acidic-polyacrylamide gel electrophoresis. The lanes in the second gliadin gel in this study were as follows: 1. Control: no addition. 2. GSH: reduced glutathione. 3. GSH/GR/NADPH: reduced glutathione, glutathione reductase (from spinach leaves) and NADPH. 4. NGS: NADPH, reduced glutathione, glutathione reductase (from spinach leaves) and glutaredoxin (from E. coli). 5. NGS+NTS: combination of 4 and 6. 6. NTS: NADPH, NTR, and thioredoxin (both proteins from E. coli). 7. MET/T(Ec): β-mercaptoethanol and thioredoxin (E. coli). 8. DTT/T(Ec): DTT and thioredoxin (E. coli). 9. NTS(−T): same as 6 except without thioredoxin. 10. NGS+NTS,-Gliadin: same as 5 except without the gliadin fraction.

castor seed 2S protein = type: biochemical, Ricinus communis
Glutenins = test: Reductant specificity of glutenins (mBBr/SDS-PAGE, densitometer); type: biochemical, durum wheat; set-up: concentration or dose not given beside the values
Procedure: as §1, §2
SDS-polyacrylamide electrophoresis of the mBBr-derivatized samples was performed in 15% gels at pH 8.5 as described by Laemmli, U.K. (1970), Nature 227:680-685. Gels of 1.5 mm thickness were developed for 16 hr. at a constant current of 9 mA.
as §3

atopic dogs = test: Feeding challenges with BLG, upper GI index; type: in vivo, dog
Procedure: Reduction of 80% pure BLG (a mixture of the A and B forms) was carried out for each dog in 100 ml of water. Each gram of BLG was treated by adding an aqueous mixture of 104 mg of NADPH, 1 mg of E. coli thioredoxin and 1 mg of E. coli NTR. The reactions occurred in a shaker at 125 rpm at 37° C. for 45 min. Samples were stored overnight at 4° C. The following day untreated (control) or treated BLG, 2.5 gm was mixed with a 12 oz. can of P/D food (Hills) and fed to a dog. Unchallenged animals received dog food alone without BLG while control animals received dog food with untreated BLG. Dogs were initially fed ¼ can of untreated food to initiate gastric flow. After 15 min, they were then fed at 3 intervals separated by 15 min ⅓ of a can of food that had been mixed with 2.5 g of either untreated or thioredoxin treated BLG. During these intervals dogs were monitored and their GI response assessed. Dogs were then observed and their response recorded at hourly intervals for the next 5 hr.
The digestion response of the food challenged dogs described above was assessed by assigning numbers to the timing, volume and fluidity of vomit induced by feeding. Fluidity: no vomit=0, solid vomit=1, liquid vomit=2, liquid with blood or bile vomit=3. Volume: no vomit=0, small vomit=1 and large vomit=2. Timing: delayed vomit=1, immediate vomit=2.

pepsin = test: Pepsin assay in simulated gastric fluid; type: in vitro ADME, porcine; conditions: thioredoxin-reduced form in milk, SGF 37° C.
Procedure: BLG, 640 μg, or milk, 1 mg protein (i.e., about 30 μl), was incubated with or without the thioredoxin system (NTS) at either 4° C. […] The BLG, 320 μg, or milk, 500 μg protein, was then treated in 200 μl of simulated gastric fluid (SGF) as described by Astwood, J. D. et al. (1996), “Stability of food allergens to digestion in vitro”, Nature Biotechnol. 14:1269-1273. SGF consists of 0.32% pepsin (w/v) and 30 mM NaCl adjusted at pH 1.2 with HCl (Board of Trustees (ed.) 1995, Simulated Gastric Fluid, TS., pp. 2053 in the United States Pharmacopeia 23, The National Formulary 18. United States Pharmacopeial Convention, Inc. Rockville, Md.). The reaction mixture was incubated at 37° C. and stopped by adding 0.375-fold volume of 160 mM Na2CO3 (ca. pH 7) after 0, 0.25, 1, 2, 4, 8, 15, 30 and 60 min incubation. The protein mixture was then subjected to SDS-PAGE (15% gels) and stained for protein with Coomassie blue as described below. As indicated, the allergenicity of the digested samples was determined by skin test analysis.

trypsin = test: Trypsin proteolysis of purified milk allergen proteins; type: biochemical; conditions: 2 μg trypsin
Procedure: The analysis of the reduction was done using the mBBr/SDS-PAGE techniques. Further in this study, when 10 μg of an NTS reduced purified milk allergen protein, β-lactoglobulin (Sigma Chemical Co.), was treated with 2 μg of trypsin, proteolysis was 100% as compared with only 50% for the identically trypsin treated oxidized β-lactoglobulin. […] However, 10 μg of purified […] reduced by the NTS was proteolyzed 80% by trypsin. Also 10 μg of α-lactalbumin reduced by 0.8 μg of thioredoxin and 0.5 mM DTT was 100% proteolyzed by 2 μg of trypsin.

Molecule	Gliadin, % Relative Reduction, Aggregate (proteins not entering the gel) (Gliadins) [%]	Gliadin, % Relative Reduction, α (Gliadins) [%]	Gliadin, % Relative Reduction, β (Gliadins) [%]	Gliadin, % Relative Reduction, γ (Gliadins) [%]	Glutenin, % Relative Reduction, 30-40 kDa (Glutenins; Thioredoxin = 100) [%]	Glutenin, % Relative Reduction, 40-60 kDa (Glutenins; Thioredoxin = 100) [%]	Glutenin, % Relative Reduction, 60-110 kDa (Glutenins; Thioredoxin = 100) [%]	other results
erabutoxin b: short postsynaptic snake neurotoxin	–	–	–	–	–	–	–	reduction of the toxin (thioredoxin): significantly reduced
N[C@@H](CCC(=O)N[C@@H](CS)C(=O)NCC(=O)O)C(=O)O [Glutathione, reduced glutathione, reference compound]	60.1	36.4	68.1	60.6	–	–	–	effectiveness in reducing egg white proteins (egg white proteins): ineffective reductant; Relative Reduction (%) (castor seed 2S protein): 0%; Glutenin, % Relative Reduction, 30-40 kDa (Glutenins): 29%; Glutenin, % Relative Reduction, 40-60 kDa (Glutenins): 51%; Glutenin, % Relative Reduction, 60-110 kDa (Glutenins): 31%
Treated: BLG reduced with NADPH, E. coli thioredoxin and NTR	–	–	–	–	–	–	–	Upper GI Index (atopic dogs; dog 6GCB1, Treated Exp. A, Control Exp. B): 0; Upper GI Index (atopic dogs; dog 6GCB3, BLG 2.5 g in dog food, Control Exp. A, Treated Exp. B): 0; Upper GI Index (atopic dogs; dog 6GCB4, Treated Exp. A, Control Exp. B): 6; Upper GI Index (atopic dogs; dog 6GCB6, Treated Exp. A, Control Exp. B): 0; Upper GI Index (atopic dogs; dog 6GCB7, Control Exp. A, Treated Exp. B): 3; gastric reflux that disappeared (atopic dogs; repeated feeding trials, on average): about 70%; time to digestion (pepsin): ≤ 60 s
Thioredoxin: E. coli thioredoxin reduced by NADPH and NTR	100.0	100.0	100.0	100.0	100	100	100	–
B1	61.5	43.5	83.3	79.7	40	72	50	–
B2	–	–	–	–	–	–	–	proteolysis by trypsin (trypsin; 10 μg oxidized protein): no noticeable proteolysis; proteolysis by trypsin (trypsin; 10 μg protein reduced by 0.8 μg thioredoxin and 0.5 mM DTT): 100%
